Reference: ChEMBL document CHEMBL4419173, “Small-molecule inhibitors targeting g-protein-coupled rho guanine nucleotide exchange factors” (2014)
Activity calls are given as the source filed them. The rule behind the calls is not given here.

Key:
Type in all cases: cell-based
MCF7 = assay: Inhibition of RhoGEF in human MCF7 cells derived mammospheres assessed as inhibition of 10% calf serum-induced RhoA-GTP formation by measuring relative RhoA-GTP level incubated for 24 hrs by densitometry (reference value: 1)
[1] = biological target: A-kinase anchor protein 13/Transforming protein RhoA (Homo sapiens) (UniProt P61586+Q12802); assay: Inhibition of FLAG-tagged human LBC RhoGEF DH-PH module expressed in mouse NIH/3T3 cells assessed as reduction in human full length RhoA (1 to 193 residues) interaction with LBC RhoGEF at 10 to 50 uM incubated for 1 hr by Western blot analysis based His-RhoA pull-down assay
[2] = biological target: T1, RhoGEF 1/Transforming protein RhoA (Homo sapiens) (UniProt P61586+Q92888); assay: (§1) Binding affinity to human LARG (765 to 1138 residues) DH-PH module expressed in mouse NIH/3T3 cells assessed as reduction in LARG binding to human full length RhoA (1 to 193 residues) by measuring relative LARG binding level at 5 uM pull-down assay (reference value: 1 No unit)
[3] = biological target: T1, RhoGEF 1/Transforming protein RhoA (Homo sapiens); assay: as §1, with “at 15” for “at 5”, “uM in presence of 15 uM Rhosin/G04” for “uM”
Mus musculus = species: Mus musculus; assay: Inhibition of RhoGEF in mouse NIH/3T3 cells assessed as inhibition of 10% calf serum-induced RhoA-GTP formation by measuring relative RhoA-GTP level at 50 uM incubated for 24 hrs by densitometry (reference value: 1)

inhibition [1]: inactive | fold change (FC) [2]: 0.73 | fold change (FC) [3]: 0.03
Compound: Cc1cccc(COc2cccc(/C=C3\C(=O)NN(c4ccccc4)C3=O)c2)c1
inhibition (MCF7): Dose-dependent effect | fold change (FC) (Mus musculus): 0.26
